How the values were obtained:
[1] = Ferric reducing antioxidant power (FRAP) assay; conditions: Trolox equivalents; acetate buffer pH 3.6, 1 h, 37 °C
[2] = target: T1, human β-amyloid (1–42) (HsAβ42) (Homo sapiens, UniProt P05067); assay: Inhibition of HsAβ42 self-aggregation (thioflavin T fluorescence); assay type: biochemical; conditions: HsAβ42 50 µM, compound 100 µM, 24 h, 37 °C; n.a. = not active
T1 construct: purchased AnaSpec Inc
Procedure: The potential of compounds from all three groups (1a-e, 5a-e, 7a-d) to inhibit HsAβ42 self-aggregation was evaluated using a Thioflavin T (ThT) fluorescence assay.
Inhibition of HsAβ42 self-aggregation by test compounds was studied using the thioflavin T (ThT) fluorescence method with minor modifications as described in detail in [79]. Lyophilized HFIP-pretreated HsAβ42 (AnaSpec Inc., Fremont, CA, USA, 0.5 mg) was dissolved in DMSO to obtain a stable 500 μM solution. The samples of 50 μM HsAβ42 in 215 mM Na-phosphate buffer pH 8.0 were incubated for 24 h at 37 °C in the absence or presence of 100 μM test compounds. Myricetin in the same concentration was used as a reference. After incubation, 5 μM ThT in 50 mM glycine-NaOH buffer pH 8.5 was added, and the fluorescence was measured at 440 nm (exc.) and 485 nm (emis.) with a FLUOStar Optima microplate reader. Blanks consisted of 215 mM Na-phosphate buffer, pH 8.0, 20% (v/v) DMSO or test compounds, respectively. The inhibition (%) of HsAβ42 self-aggregation by the test compounds was calculated.

[3] = tested on: porcine (Sus scrofa) liver CES (SsCES); assay: Inhibition of SsCES (spectrophotometric, 4-NPA substrate); assay type: biochemical; conditions: compound 20 μM; n.a. = not active; mean ± SEM, n = 3
Source text: (§1) In these experiments, human (Homo sapiens) erythrocyte AChE (HsAChE), equine (Equus caballus) serum BChE (EcBChE), and porcine (Sus scrofa) liver CES (SsCES) were used because of their ready availability, relatively low cost, and high sequence homology of EcBChE and SsCES to the corresponding human enzymes.
Although the dominant carboxylesterase in porcine liver is CES1 [64], the preparation sourced from Sigma-Aldrich is not a purified or recombinant CES1. Therefore, we have designated the preparation used in our experimental studies as SsCES. However, in computational molecular docking studies, it is necessary to choose a single defined protein as the docking target. Thus, the logical choice for our computational studies of CES was the most abundant and best characterized isoform found in porcine liver, which is SsCES1.
(§2) Enzymes, substrates, and reference compounds were sourced from Sigma-Aldrich (St. Louis, MO, USA). Enzyme activity was measured spectrophotometrically according to [91] using ATCh iodide, BTCh iodide, and 4-NPA as substrates for HsAChE, EcBChE, and SsCES, respectively. Experimental conditions included a K/Na-phosphate buffer (100 mM), at 25 °C, with pH 7.5 for AChE and BChE assays, and pH 8.0 for CES assays. Measurements were conducted on a BioRad Benchmark Plus microplate spectrophotometer (Hercules, CA, USA). Test compounds were dissolved in DMSO with a final solvent concentration of 2% (v/v) in the incubation mixture.

[4] = target: T2, peripheral anionic site (PAS) of Electrophorus electricus AChE (EeAChE) (Electrophorus electricus, UniProt O42275); assay: Propidium displacement from the EeAChE PAS (fluorescence); assay type: binding; conditions: compound concentration 20 µM; EeAChE 7 μM, propidium iodide 8 μM, Tris-HCl pH 8.0; n.a. = not active
T2 construct: purchased Sigma-Aldrich type VI-S
Procedure: A fluorescence-based assay assessed the ability of test compounds to competitively displace propidium iodide from AChE’s PAS [65, 93]. […] EeAChE (7 μM) was incubated with 20 μM test compounds in Tris-HCl buffer (pH 8.0) for 15 min, followed by addition of propidium iodide (8 μM) as described in detail in [95]. Fluorescence readings (530 nm excitation, 600 nm emission) were obtained using a FLUOStar Optima microplate reader (LabTech, Ortenberg, Germany). Displacement (%) was calculated.

[5] = tested on: reprogrammed human neuronal cell cultures (MSC-Neu); assay: Cytotoxicity, MTT test, MSC-Neu; conditions: read-out: Cytotoxic activity, LC50, MSC-Neu, 24 h, 1 to 1024 μM, mean ± SE, n = 3
Procedure: (§3) Cytotoxic activity was assessed using the MTT test. […] For each compound, the half-lethal concentration parameter LC50 (μM) was calculated.
(§4) This study employed SH-SY5Y neuroblastoma cells and dental pulp-derived mesenchymal stem cells (MSC-DP). Cells were cultured in DMEM/F12 with 10% (v/v) FBS under standard conditions. MSC-DP were reprogrammed into neuronal-like cells (MSC-Neu) using Neurobasal medium with addition of Neuromax and 3% (v/v) FBS for 5 days.
(§5) The cytotoxic effect of Fcs was assessed using the Mossman test for cellular dehydrogenase activity (MTT test). […] For each compound, the half-lethal concentration parameter (LC50) in μM was calculated as described previously.

[6] = target: T3, human (Homo sapiens) erythrocyte AChE (HsAChE) (Homo sapiens, UniProt P22303); assay: Inhibition of HsAChE (spectrophotometric, ATCh iodide substrate); assay type: biochemical; conditions: K/Na-phosphate buffer pH 7.5, 25 °C; mean ± SEM, n = 3
T3 construct: human (Homo sapiens) erythrocyte AChE (HsAChE); purchased Sigma-Aldrich; host or cells: human erythrocytes
Procedure: as §1, §2

[7] = ABTS radical cation scavenging activity assay; conditions: ethanol, 1 h; for IC50: ABTS^•+ 100 μM; for ABTS^•+-Scavenging Activity, TEAC: Trolox equivalent antioxidant capacity, mean ± SEM, n = 3
[8] = tested on: human neuroblastoma cell cultures (SH-SY5Y); assay: Cytotoxicity, MTT test, SH-SY5Y; conditions: read-out: Cytotoxic activity, LC50, SH-SY5Y, 24 h, 1 to 1024 μM, mean ± SE, n = 3
Procedure: as §3, §4, §5

[9] = target: T4, equine (Equus caballus) serum BChE (EcBChE) (Equus caballus, UniProt P81908); assay: Inhibition of EcBChE (spectrophotometric, BTCh iodide substrate); assay type: biochemical; conditions: K/Na-phosphate buffer pH 7.5, 25 °C; mean ± SEM, n = 3
T4 construct: equine (Equus caballus) serum BChE (EcBChE); purchased Sigma-Aldrich; host or cells: horse serum
Procedure: as §1, §2

MCF7 cell line = conditions: Figure 12; read-out: LC50, MCF7 cell line; cited from earlier work
EcBChE = target: T5, EcBChE (Equus caballus, UniProt P81908); assay: Kinetic study of EcBChE inhibition (Lineweaver-Burk); assay type: biochemical
T5 construct: equine (Equus caballus) serum BChE (EcBChE); purchased Sigma-Aldrich; host or cells: horse serum
Procedure: (§6) . To determine the relationship between enzyme activity and inhibitor concentration at different substrate levels, we conducted kinetic assays. The kinetic data analysis, using Lineweaver–Burk plots, is shown in Figure 2A and Figure 2B for HsAChE and EcBChE, respectively.
(§7) To investigate the mechanisms of HsAChE and EcBChE inhibition, enzyme kinetics were analyzed (detailed in [92]). After a 5 min equilibration at 25 °C with three different inhibitor concentrations and six substrate concentrations, residual enzyme activity was measured as described. Lineweaver–Burk plots (1/V vs. 1/[S]) were used to determine competitive (Ki) and non-competitive (αKi) inhibition constants.

HsAChE = target: T6, HsAChE (Homo sapiens, UniProt P22303); assay: Kinetic study of HsAChE inhibition (Lineweaver-Burk); assay type: biochemical
T6 construct: human (Homo sapiens) erythrocyte AChE (HsAChE); purchased Sigma-Aldrich; host or cells: human erythrocytes
Procedure: as §6, §7

[10] = cited from earlier work

T4 sequence (P81908 whole entry): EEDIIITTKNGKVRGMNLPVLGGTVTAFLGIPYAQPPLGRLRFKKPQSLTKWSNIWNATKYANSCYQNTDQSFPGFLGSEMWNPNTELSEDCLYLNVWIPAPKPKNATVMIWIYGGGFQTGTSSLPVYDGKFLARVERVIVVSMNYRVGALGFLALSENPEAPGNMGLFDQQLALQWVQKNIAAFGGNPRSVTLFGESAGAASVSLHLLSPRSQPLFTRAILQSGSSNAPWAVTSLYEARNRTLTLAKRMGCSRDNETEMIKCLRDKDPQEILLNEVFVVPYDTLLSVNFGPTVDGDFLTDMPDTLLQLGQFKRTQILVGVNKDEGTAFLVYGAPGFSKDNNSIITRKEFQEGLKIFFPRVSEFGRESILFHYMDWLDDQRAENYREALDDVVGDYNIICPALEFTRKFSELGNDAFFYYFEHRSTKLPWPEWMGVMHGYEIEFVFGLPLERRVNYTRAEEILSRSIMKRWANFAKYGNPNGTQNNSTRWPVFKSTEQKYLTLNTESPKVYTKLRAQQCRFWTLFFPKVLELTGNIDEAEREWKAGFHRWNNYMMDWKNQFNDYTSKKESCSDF
T5 sequence (P81908 whole entry): as above
T2 sequence (O42275 24-633): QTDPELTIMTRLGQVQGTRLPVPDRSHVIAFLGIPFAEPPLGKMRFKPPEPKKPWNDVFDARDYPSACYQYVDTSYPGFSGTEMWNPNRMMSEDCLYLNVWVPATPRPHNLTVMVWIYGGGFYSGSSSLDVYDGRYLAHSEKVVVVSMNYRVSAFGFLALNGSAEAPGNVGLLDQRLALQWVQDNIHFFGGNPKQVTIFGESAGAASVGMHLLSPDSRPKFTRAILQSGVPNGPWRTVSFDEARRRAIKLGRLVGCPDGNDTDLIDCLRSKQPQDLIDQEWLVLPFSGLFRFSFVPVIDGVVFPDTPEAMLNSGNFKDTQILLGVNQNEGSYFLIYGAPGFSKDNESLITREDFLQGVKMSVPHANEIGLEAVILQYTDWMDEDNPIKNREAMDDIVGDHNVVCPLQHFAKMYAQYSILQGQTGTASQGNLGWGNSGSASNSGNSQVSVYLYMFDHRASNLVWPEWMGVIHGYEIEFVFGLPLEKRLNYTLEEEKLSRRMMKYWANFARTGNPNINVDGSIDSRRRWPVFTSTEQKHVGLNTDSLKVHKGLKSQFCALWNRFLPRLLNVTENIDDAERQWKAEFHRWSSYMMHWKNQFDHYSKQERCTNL
T6 sequence (P22303 32-617 isoform P22303-2 limits assumed): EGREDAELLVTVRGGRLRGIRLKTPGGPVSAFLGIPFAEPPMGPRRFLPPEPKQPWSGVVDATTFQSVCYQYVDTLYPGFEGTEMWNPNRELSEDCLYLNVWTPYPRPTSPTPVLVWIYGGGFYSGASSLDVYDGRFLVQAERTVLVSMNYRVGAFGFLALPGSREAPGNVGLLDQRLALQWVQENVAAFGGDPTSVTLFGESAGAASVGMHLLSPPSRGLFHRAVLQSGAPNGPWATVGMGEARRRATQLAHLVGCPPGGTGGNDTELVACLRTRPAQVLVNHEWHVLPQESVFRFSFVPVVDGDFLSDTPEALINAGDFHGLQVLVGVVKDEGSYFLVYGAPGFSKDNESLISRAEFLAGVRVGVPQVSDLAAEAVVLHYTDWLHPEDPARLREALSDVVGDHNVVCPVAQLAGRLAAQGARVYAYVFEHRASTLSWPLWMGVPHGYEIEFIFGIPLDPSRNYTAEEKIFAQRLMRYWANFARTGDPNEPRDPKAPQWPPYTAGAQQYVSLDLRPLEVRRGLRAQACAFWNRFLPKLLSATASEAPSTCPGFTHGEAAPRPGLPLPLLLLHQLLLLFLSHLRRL
T3 sequence (P22303 32-617 isoform P22303-2 limits assumed): as above
T1 sequence (P05067 672-713 limits assumed): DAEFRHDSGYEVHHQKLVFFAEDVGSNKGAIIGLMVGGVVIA

Compound	Ferric Reducing Antioxidant Power, TE [1]	HsAβ42 self-Aggregation Inhibition, (%) [2]	Inhibition of SsCES, % inhibition at 20 μM [3]	Propidium Displacement, (%) [4]	CC50 [5]	IC50 [6]	IC50 [7]	ABTS^•+-Scavenging Activity, TEAC [7]	CC50 [8]	IC50 [9]	CC50 (MCF7 cell line)	noncompetitive component of inhibition constant (αKi), EcBChE (EcBChE)	type of inhibition, EcBChE (EcBChE; Vmax and Km both change)	Ki (EcBChE; read-out: competitive component of inhibition constant (Ki), EcBChE)	noncompetitive component of inhibition constant (αKi), HsAChE (HsAChE)	type of inhibition, HsAChE (HsAChE; Vmax and Km both change)	Ki (HsAChE; read-out: competitive component of inhibition constant (Ki), HsAChE)	Experimental pKa [10]
C=C[c-]1cccc1.[Fe+2].c1ccc(-c2cccc(-[c-]3cccc3)n2)nc1 [7d, 1-(2,2′-Bipyridin-6-yl)-1′-Vinylferrocene]	1.93 ± 0.06	81.5 ± 4.9%	5.8 ± 1.3%	9.7 ± 0.6%	299 ± 21.9 µM	6.34 ± 0.51 µM	15.6 ± 0.7 µM	1.36 ± 0.06	158 ± 19.8 µM	7.94 ± 0.55 µM	–	–	–	–	–	–	–	–
CC(=C(c1ccc(O)cc1)c1ccc(O)cc1)[c-]1cccc1.[Fe+2].c1cc[cH-]c1 [compound 10, 1,1-bis(4-hydroxyphenyl)-2-ferrocenylprop-1-ene, reference compound]	–	–	–	–	104 ± 12.3 µM	–	–	–	43.4 ± 6.7 µM	–	18.1 ± 2.1 µM	–	–	–	–	–	–	–
[Fe+2].c1cc[cH-]c1.c1ccc2nc(-[c-]3cccc3)ccc2c1 [1b]	2.21 ± 0.01	79.5 ± 6.3%	29.8 ± 2.0%	10.2 ± 0.8%	393 ± 13.2 µM	68.1 ± 3.4 µM	6.6 ± 0.3 µM	4.2 ± 0.2	243 ± 27.4 µM	2.7 ± 0.19 µM	–	–	–	–	–	–	–	–
C=C[c-]1cccc1.[Fe+2].c1ccc2nc(-[c-]3cccc3)ccc2c1 [7b, 1-(Quinolin-2-yl)-1′-Vinylferrocene]	2.21 ± 0.02	89.6 ± 6.2%	29.8 ± 2.6%	7.7 ± 0.6%	277 ± 14.8 µM	3.32 ± 0.23 µM	5.3 ± 0.2 µM	4.4 ± 0.2	287 ± 31.7 µM	3.68 ± 0.29 µM	–	4.58 ± 0.27 µM	mixed type of inhibition	2.77 ± 0.22 µM	3.05 ± 0.18 µM	mixed type of inhibition	1.92 ± 0.13 µM	–
CC(=C(c1ccc(O)cc1)c1ccc(O)cc1)[c-]1cccc1.[Fe+2].c1ccc2nc(-[c-]3cccc3)ccc2c1 [compound 11, 1-(quinolin-2-yl)-1’-{1-[bis(4-hydroxyphenyl)methylene]ethyl}ferrocene, reference compound]	–	–	–	–	139 ± 15.7 µM	–	–	–	57.8 ± 8.2 µM	–	50.9 ± 3.65 µM	–	–	–	–	–	–	–
CCC(=C(c1ccc(O)cc1)c1ccc(O)cc1)[c-]1cccc1.[Fe+2].c1cc[cH-]c1 [Ferrocifenol]	–	–	–	–	–	–	–	–	–	–	0.9 µM	–	–	–	–	–	–	–
C=C(C)[c-]1cccc1.[Fe+2].c1ccc2nc(-[c-]3cccc3)ccc2c1 [5b]	3.13 ± 0.17	82.9 ± 6.6%	35.4 ± 2.8%	11.5 ± 0.8%	564 ± 31.8 µM	4.01 ± 0.28 µM	5.6 ± 0.3 µM	4.3 ± 0.2	281 ± 30.1 µM	9.91 ± 0.69 µM	–	–	–	–	–	–	–	–
[Fe+2].c1cc[cH-]c1.c1ccc(-c2cccc(-[c-]3cccc3)n2)nc1 [1d]	1.77 ± 0.04	63.7 ± 5.1%	20.9 ± 1.6%	11.1 ± 0.9%	632 ± 22.8 µM	7.89 ± 0.63 µM	20.6 ± 1.5 µM	1.00 ± 0.04	152 ± 21.2 µM	13.8 ± 1.2 µM	–	–	–	–	–	–	–	–
C=C(C)[c-]1cccc1.[Fe+2].c1ccc(-c2cccc(-[c-]3cccc3)n2)nc1 [5d]	1.47 ± 0.06	83.8 ± 4.2%	–	8.2 ± 0.6%	414 ± 18.6 µM	5.12 ± 0.41 µM	20.8 ± 0.1 µM	0.94 ± 0.05	189 ± 19.3 µM	4.86 ± 0.39 µM	–	–	–	–	–	–	–	–
c1ccc(-c2ccccn2)nc1 [Bipyridine]	–	–	–	–	–	–	–	–	–	–	–	–	–	–	–	–	–	4.35
